Test results taken from patent US9211310B2, “Use of a Chinese medicine composition in preparing medicaments for treating secondary prevention of myocardial infarction” (TASLY PHARMACEUTICAL GROUP CO., LTD, priority 2010, dated 2015).

Test system: patients after acute myocardial infarction
Assay: Angina pectoris score, total and single (frequency/attack times, duration, pain degree, dose of nitroglycerin), same clinical trial
Type: in vivo, human
Design: total angina pectoris score, Md / total angina pectoris score, Mean: scale not given here
Conditions: for change of attack times score, patients (%): Follow-up baseline
Excerpt: In order to better understand the present invention, a multi-center, randomized, double-blind, double-dummy and positive drug controlled trial had been conducted. 3508 patients who were in accordance with the diagnostic standards of AMI for 28 days to 2 years and differentiated as Qi deficiency and blood stagnation syndrome by TCM were studied. 0.5 g Chinese medicine composition prepared by the method of EXAMPLE 1 (Coded as QSYQ) was administrated half an hour after meal, 3 times per day. Aspirine was used as a positive drug. The patients were treated for 1 year and observed for 6 months.
They included the overall survival time, angina pectoris score, TCM symptom score and life quality score, where angina pectoris score, TCM symptom score and life quality score were evaluated at randomization, in 1st, 3rd, 6th, 9th, 12th month after treatment and 18th month after follow-up.
(§1) Total angina pectoris score was described on every observation period and the change of observation in comparison with baseline. T-test or Wilcoxon rank sum test were used for inter-group comparison. Grade of total score was evaluated on every observation and Wilcoxon rank sum test was used for inter-group comparison. T-test and Pairing signed rank sum test were used for analyzing the change of total score on every observation between groups in comparison with the baseline.
(§2) Single angina pectoris score was depicted on every observation time-point and the change of observation in comparison with baseline. Wilcoxon rank sum test was used for inter-group comparison. Pairing signed rank sum test was used for analyzing the change of total score on every observation between groups in comparison with the baseline.
as §1, with “comparison with the baseline. T-test” for “comparison with baseline. T-test”
as §2, with “described” for “depicted”

[1] = FAS, 12 months after treatment-baseline
[2] = PP, 1 month after treatment-baseline
[3] = PP, 3 months after treatment-baseline

Q: Which results are given for `CC(=O)Oc1ccccc1C(=O)O` [Control group, aspirine]?
A: change of total angina pectoris score, Md [1]: −2.00; change of total angina pectoris score, Mean [1]: −3.28; patients with change of dose of nitroglycerin score 0 (%) [1]: (65.55%); patients with change of dose of nitroglycerin score 1 (%) [1]: (0.52%); patients with change of dose of nitroglycerin score 2 (%) [1]: (3.97%); patients with change of dose of nitroglycerin score 4 (%) [1]: (0.40%); patients with change of dose of nitroglycerin score 6 (%) [1]: (0.35%); patients with change of dose of nitroglycerin score −1 (%) [1]: (0.52%); patients with change of dose of nitroglycerin score −2 (%) [1]: (21.77%); patients with change of dose of nitroglycerin score −3 (%) [1]: (0.06%); patients with change of dose of nitroglycerin score −4 (%) [1]: (4.95%); patients with change of dose of nitroglycerin score −5 (%) [1]: (0.06%); patients with change of dose of nitroglycerin score −6 (%) [1]: (1.84%); distribution of total angina pectoris score: Medium, number of patients (FAS, Baseline): 608; distribution of total angina pectoris score: Medium, percentage of patients (FAS, Baseline): (34.90%); distribution of total angina pectoris score: Mild, number of patients (FAS, Baseline): 1086; distribution of total angina pectoris score: Mild, percentage of patients (FAS, Baseline): (62.34%); distribution of total angina pectoris score: Severe, number of patients (FAS, Baseline): 48; distribution of total angina pectoris score: Severe, percentage of patients (FAS, Baseline): (2.76%); total angina pectoris score, Md (FAS, Baseline): 8.00; total angina pectoris score, Mean (FAS, Baseline): 7.12; distribution of total angina pectoris score: Medium, number of patients (FAS, Follow-up): 199; distribution of total angina pectoris score: Medium, percentage of patients (FAS, Follow-up): (13.79%); distribution of total angina pectoris score: Mild, number of patients (FAS, Follow-up): 1243; distribution of total angina pectoris score: Mild, percentage of patients (FAS, Follow-up): (86.14%); distribution of total angina pectoris score: Severe, number of patients (FAS, Follow-up): 1; distribution of total angina pectoris score: Severe, percentage of patients (FAS, Follow-up): (0.07%); patients with dose of nitroglycerin score 0 (%) (FAS, Follow-up): (74.24%); patients with dose of nitroglycerin score 1 (%) (FAS, Follow-up): (0.90%); patients with dose of nitroglycerin score 2 (%) (FAS, Follow-up): (23.19%); patients with dose of nitroglycerin score 4 (%) (FAS, Follow-up): (1.04%); patients with dose of nitroglycerin score 6 (%) (FAS, Follow-up): (0.63%); total angina pectoris score, Md (FAS, Follow-up): 0.00; total angina pectoris score, Mean (FAS, Follow-up): 3.59; change of total angina pectoris score, Md (FAS, Follow-up-baseline): −2.00; change of total angina pectoris score, Mean (FAS, Follow-up-baseline): −3.49; patients with change of dose of nitroglycerin score 0 (%) (FAS, Follow-up-baseline): (64.39%); patients with change of dose of nitroglycerin score 1 (%) (FAS, Follow-up-baseline): (0.28%); patients with change of dose of nitroglycerin score 2 (%) (FAS, Follow-up-baseline): (4.04%); patients with change of dose of nitroglycerin score 4 (%) (FAS, Follow-up-baseline): (0.28%); patients with change of dose of nitroglycerin score 6 (%) (FAS, Follow-up-baseline): (0.21%); patients with change of dose of nitroglycerin score −1 (%) (FAS, Follow-up-baseline): (0.42%); patients with change of dose of nitroglycerin score −2 (%) (FAS, Follow-up-baseline): (21.81%); patients with change of dose of nitroglycerin score −3 (%) (FAS, Follow-up-baseline): (0.14%); patients with change of dose of nitroglycerin score −4 (%) (FAS, Follow-up-baseline): (6.41%); patients with change of dose of nitroglycerin score −5 (%) (FAS, Follow-up-baseline): (0.14%); patients with change of dose of nitroglycerin score −6 (%) (FAS, Follow-up-baseline): (1.88%); change of attack times score, patients (%) (change 0, FAS): (44.70%); change of attack times score, patients (%) (change 0, PP): (44.46%); change of attack times score, patients (%) (change 1, FAS): (1.94%); change of attack times score, patients (%) (change 1, PP): (1.99%); change of attack times score, patients (%) (change 2, FAS): (1.73%); change of attack times score, patients (%) (change 2, PP): (1.70%); change of attack times score, patients (%) (change 4, FAS): (0.14%); change of attack times score, patients (%) (change 4, PP): (0.14%); change of attack times score, patients (%) (change −1, FAS): (22.52%); change of attack times score, patients (%) (change −1, PP): (22.44%); change of attack times score, patients (%) (change −2, FAS): (22.73%); change of attack times score, patients (%) (change −2, PP): (22.87%); change of attack times score, patients (%) (change −3, FAS): (2.01%); change of attack times score, patients (%) (change −3, PP): (2.06%); change of attack times score, patients (%) (change −4, FAS): (3.60%); change of attack times score, patients (%) (change −4, PP): (3.69%); change of attack times score, patients (%) (change −5, FAS): (0.21%); change of attack times score, patients (%) (change −5, PP): (0.21%); change of attack times score, patients (%) (change −6, FAS): (0.42%); change of attack times score, patients (%) (change −6, PP): (0.43%); attack times score, patients (%) (Follow-up, score 0, FAS): (53.64%); attack times score, patients (%) (Follow-up, score 0, PP): (53.48%); attack times score, patients (%) (Follow-up, score 1, FAS): (22.80%); attack times score, patients (%) (Follow-up, score 1, PP): (22.87%); attack times score, patients (%) (Follow-up, score 2, FAS): (22.94%); attack times score, patients (%) (Follow-up, score 2, PP): (23.01%); attack times score, patients (%) (Follow-up, score 4, FAS): (0.62%); attack times score, patients (%) (Follow-up, score 4, PP): (0.64%); distribution of total angina pectoris score: Medium, number of patients (PP, 1 month after treatment): 434; distribution of total angina pectoris score: Medium, percentage of patients (PP, 1 month after treatment): (29.21%); distribution of total angina pectoris score: Mild, number of patients (PP, 1 month after treatment): 1030; distribution of total angina pectoris score: Mild, percentage of patients (PP, 1 month after treatment): (69.31%); distribution of total angina pectoris score: Severe, number of patients (PP, 1 month after treatment): 22; distribution of total angina pectoris score: Severe, percentage of patients (PP, 1 month after treatment): (1.48%); patients with dose of nitroglycerin score 0 (%) (PP, 1 month after treatment): (59.61%); patients with dose of nitroglycerin score 1 (%) (PP, 1 month after treatment): (0.27%); patients with dose of nitroglycerin score 2 (%) (PP, 1 month after treatment): (29.40%); patients with dose of nitroglycerin score 4 (%) (PP, 1 month after treatment): (7.48%); patients with dose of nitroglycerin score 6 (%) (PP, 1 month after treatment): (3.24%); total angina pectoris score, Md (PP, 1 month after treatment): 6.00; total angina pectoris score, Mean (PP, 1 month after treatment): 5.95; change of total angina pectoris score, Md [2]: 0.00; change of total angina pectoris score, Mean [2]: −1.22; patients with change of dose of nitroglycerin score 0 (%) [2]: (80.36%); patients with change of dose of nitroglycerin score 1 (%) [2]: (0.20%); patients with change of dose of nitroglycerin score 2 (%) [2]: (3.78%); patients with change of dose of nitroglycerin score 4 (%) [2]: (1.01%); patients with change of dose of nitroglycerin score 6 (%) [2]: (0.27%); patients with change of dose of nitroglycerin score −2 (%) [2]: (11.54%); patients with change of dose of nitroglycerin score −4 (%) [2]: (2.29%); patients with change of dose of nitroglycerin score −6 (%) [2]: (0.54%); distribution of total angina pectoris score: Medium, number of patients (PP, 3 months after treatment): 363; distribution of total angina pectoris score: Medium, percentage of patients (PP, 3 months after treatment): (24.64%); distribution of total angina pectoris score: Mild, number of patients (PP, 3 months after treatment): 1098; distribution of total angina pectoris score: Mild, percentage of patients (PP, 3 months after treatment): (74.54%); distribution of total angina pectoris score: Severe, number of patients (PP, 3 months after treatment): 12; distribution of total angina pectoris score: Severe, percentage of patients (PP, 3 months after treatment): (0.81%); patients with dose of nitroglycerin score 0 (%) (PP, 3 months after treatment): (62.95%); patients with dose of nitroglycerin score 1 (%) (PP, 3 months after treatment): (0.75%); patients with dose of nitroglycerin score 2 (%) (PP, 3 months after treatment): (29.10%); patients with dose of nitroglycerin score 4 (%) (PP, 3 months after treatment): (4.96%); patients with dose of nitroglycerin score 6 (%) (PP, 3 months after treatment): (2.24%); total angina pectoris score, Md (PP, 3 months after treatment): 6.00; total angina pectoris score, Mean (PP, 3 months after treatment): 5.32; change of total angina pectoris score, Md [3]: 0.00; change of total angina pectoris score, Mean [3]: −1.85; patients with change of dose of nitroglycerin score 0 (%) [3]: (5.05%); patients with change of dose of nitroglycerin score 1 (%) [3]: (0.20%); patients with change of dose of nitroglycerin score 2 (%) [3]: (3.75%); patients with change of dose of nitroglycerin score 4 (%) [3]: (0.55%); patients with change of dose of nitroglycerin score 6 (%) [3]: (0.34%); patients with change of dose of nitroglycerin score −1 (%) [3]: (0.34%); patients with change of dose of nitroglycerin score −2 (%) [3]: (15.81%); patients with change of dose of nitroglycerin score −4 (%) [3]: (3.14%); patients with change of dose of nitroglycerin score −5 (%) [3]: (0.14%)
